In US20260049076A1, “Tertiary Amine Substituted Bicyclic Compounds Useful as T Cell Activators” (BRISTOL-MYERS SQUIBB COMPANY, priority 2022, published 2026):

How the values were obtained:
human DGKα = biological target: T1, human DGKα (Homo sapiens, UniProt P23743); assay: In vitro DGK inhibition assay, DGKα liposome (LIPGLO) assay; type: biochemical; conditions: read-out: Enzyme Inhibition DGKalpha IC50
T1 construct: TVMV protease cleavage site (C); Hexa-His (C); made in house; host or cells: Sf9 insect cells (baculovirus)
T1 sequence (P23743 with tags, fused parts or gaps): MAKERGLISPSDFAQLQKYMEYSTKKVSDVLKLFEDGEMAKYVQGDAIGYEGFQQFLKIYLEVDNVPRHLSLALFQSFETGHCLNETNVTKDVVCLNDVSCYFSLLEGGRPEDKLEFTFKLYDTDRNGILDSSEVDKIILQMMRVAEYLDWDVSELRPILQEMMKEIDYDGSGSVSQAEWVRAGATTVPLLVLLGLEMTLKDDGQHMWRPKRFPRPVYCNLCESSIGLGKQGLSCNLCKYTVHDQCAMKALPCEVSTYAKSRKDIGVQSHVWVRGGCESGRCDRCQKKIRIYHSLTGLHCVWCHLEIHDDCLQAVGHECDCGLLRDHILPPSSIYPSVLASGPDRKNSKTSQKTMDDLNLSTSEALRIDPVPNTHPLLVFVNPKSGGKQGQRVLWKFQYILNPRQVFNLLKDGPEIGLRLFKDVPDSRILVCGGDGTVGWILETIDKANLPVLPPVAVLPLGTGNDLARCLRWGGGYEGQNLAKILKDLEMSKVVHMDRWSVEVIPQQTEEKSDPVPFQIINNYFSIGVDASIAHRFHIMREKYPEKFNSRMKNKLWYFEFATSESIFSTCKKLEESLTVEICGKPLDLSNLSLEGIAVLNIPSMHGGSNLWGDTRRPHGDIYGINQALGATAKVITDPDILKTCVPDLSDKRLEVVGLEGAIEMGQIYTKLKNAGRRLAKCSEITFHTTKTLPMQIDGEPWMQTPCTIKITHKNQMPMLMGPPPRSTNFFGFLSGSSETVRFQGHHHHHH
How it was run: (§1)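 Baculovirus/Sf9-expressed His-tagged human DGKα or DGKζ (5 nM) on extruded liposomes (2 mM PS, 0.25 mM DAG, 2.75 mM PC) in MOPS pH 7.5 with MgCl2, CaCl2 and 150 μM ATP, 1 h.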

human DGKζ = biological target: T2, human DGKζ (Homo sapiens, UniProt Q13574); assay: In vitro DGK inhibition assay, DGKζ liposome (LIPGLO) assay; type: biochemical; conditions: read-out: Enzyme Inhibition DGKzeta IC50
T2 construct: TVMV protease cleavage site (C); Hexa-His (C); made in house; host or cells: Sf9 insect cells (baculovirus)
T2 sequence (Q13574 with tags, fused parts or gaps isoform Q13574-4): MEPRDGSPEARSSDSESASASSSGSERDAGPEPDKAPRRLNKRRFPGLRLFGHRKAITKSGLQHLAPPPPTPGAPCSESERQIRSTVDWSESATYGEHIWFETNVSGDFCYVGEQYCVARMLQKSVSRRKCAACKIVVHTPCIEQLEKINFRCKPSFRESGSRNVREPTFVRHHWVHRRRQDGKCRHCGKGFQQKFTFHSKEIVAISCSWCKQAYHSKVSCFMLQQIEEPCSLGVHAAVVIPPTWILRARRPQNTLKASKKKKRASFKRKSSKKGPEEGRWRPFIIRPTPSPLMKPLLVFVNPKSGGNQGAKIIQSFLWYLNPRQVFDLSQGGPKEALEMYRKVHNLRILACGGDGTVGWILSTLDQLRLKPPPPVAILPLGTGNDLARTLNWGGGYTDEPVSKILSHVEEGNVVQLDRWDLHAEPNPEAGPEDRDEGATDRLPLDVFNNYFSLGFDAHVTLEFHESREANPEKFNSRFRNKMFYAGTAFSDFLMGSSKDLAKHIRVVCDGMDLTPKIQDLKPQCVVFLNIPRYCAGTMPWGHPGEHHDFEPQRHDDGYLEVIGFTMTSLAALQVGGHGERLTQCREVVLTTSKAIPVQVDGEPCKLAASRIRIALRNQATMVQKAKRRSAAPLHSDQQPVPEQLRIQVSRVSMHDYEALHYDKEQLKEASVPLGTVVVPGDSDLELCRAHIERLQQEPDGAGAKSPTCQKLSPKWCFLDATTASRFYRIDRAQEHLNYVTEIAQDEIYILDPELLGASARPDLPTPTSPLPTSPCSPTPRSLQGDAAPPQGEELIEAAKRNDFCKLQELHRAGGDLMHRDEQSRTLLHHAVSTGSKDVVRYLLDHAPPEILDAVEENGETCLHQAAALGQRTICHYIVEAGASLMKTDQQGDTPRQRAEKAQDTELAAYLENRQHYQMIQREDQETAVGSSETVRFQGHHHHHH
How it was run: as §1

DGKzeta = DGKzeta (Homo sapiens, UniProt Q13574); assay: Translocation DGKzeta; type: cell-based
Chain of DGKzeta (Q13574 whole entry): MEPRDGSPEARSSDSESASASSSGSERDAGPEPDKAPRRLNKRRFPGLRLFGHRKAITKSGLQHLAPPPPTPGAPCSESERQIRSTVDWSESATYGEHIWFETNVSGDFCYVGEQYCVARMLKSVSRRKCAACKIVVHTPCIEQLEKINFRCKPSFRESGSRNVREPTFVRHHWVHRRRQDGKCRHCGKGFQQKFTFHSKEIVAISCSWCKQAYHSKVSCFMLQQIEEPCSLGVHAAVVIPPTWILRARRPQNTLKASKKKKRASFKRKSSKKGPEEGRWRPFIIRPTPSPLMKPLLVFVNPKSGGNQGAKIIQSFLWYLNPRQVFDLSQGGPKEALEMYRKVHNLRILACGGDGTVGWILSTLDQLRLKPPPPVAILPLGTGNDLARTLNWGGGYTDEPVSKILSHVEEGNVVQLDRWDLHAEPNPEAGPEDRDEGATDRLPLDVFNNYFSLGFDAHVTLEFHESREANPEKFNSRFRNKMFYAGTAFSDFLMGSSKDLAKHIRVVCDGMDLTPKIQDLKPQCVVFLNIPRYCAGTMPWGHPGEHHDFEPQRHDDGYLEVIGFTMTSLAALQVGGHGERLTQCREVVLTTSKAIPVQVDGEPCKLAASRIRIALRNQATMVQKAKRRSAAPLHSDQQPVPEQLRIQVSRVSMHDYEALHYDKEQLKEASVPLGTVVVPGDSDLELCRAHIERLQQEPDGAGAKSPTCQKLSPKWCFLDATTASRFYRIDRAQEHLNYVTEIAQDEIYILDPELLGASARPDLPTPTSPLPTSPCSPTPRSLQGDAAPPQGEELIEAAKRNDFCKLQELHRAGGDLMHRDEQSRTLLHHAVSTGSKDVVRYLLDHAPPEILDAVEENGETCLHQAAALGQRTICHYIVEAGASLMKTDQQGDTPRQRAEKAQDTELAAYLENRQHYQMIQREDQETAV

| Compound | IC50 (human DGKα) | IC50 (human DGKζ) | EC50 (DGKzeta) |
| --- | --- | --- | --- |
| Cn1c(=O)cc(N(CC2CC2)c2ccc(OC(F)F)c(C#N)c2)c2nc(C#N)ccc21 [Example 63, 8-((3-cyano-4-(difluoromethoxy)phenyl)(cyclopropylmethyl)amino)-5-methyl-6-oxo-5,6-dihydro-1,5-naphthyridine-2-carbonitrile] | 6.3 µM | 12 µM | 1.3 µM |
| Cn1c(=O)cc(N(CC2CC2)c2ccc(F)nc2)c2nc(C#N)ccc21 [Example 64, 8-((cyclopropylmethyl)(6-fluoropyridin-3-yl)amino)-5-methyl-6-oxo-5,6-dihydro-1,5-naphthyridine-2-carbonitrile] | 0.15 µM | 3 µM | 1.6 µM |
| Cn1c(=O)cc(N(CC2CC2)c2ccc(C#N)nc2)c2nc(C#N)ccc21 [Example 66, 8-((6-cyanopyridin-3-yl)(cyclopropylmethyl)amino)-5-methyl-6-oxo-5,6-dihydro-1,5-naphthyridine-2-carbonitrile] | 17 µM | 8.4 µM | 3 µM |
| CN(C)C(=O)c1cccc(-c2ccc(N(CC3CC3)c3cc(=O)n(C)c4ccc(C#N)nc34)cc2)c1 [Example 88, 4′-((6-cyano-1-methyl-2-oxo-1,2-dihydro-1,5-naphthyridin-4-yl)(cyclopropylmethyl)amino)-N,N-dimethyl-[1,1′-biphenyl]-3-carboxamide] | 3.2 µM | 0.88 µM |  |
| CN(C)c1cccc(-c2ccc(N(CC3CC3)c3cc(=O)n(C)c4ccc(C#N)nc34)cc2)c1 [Example 89, 8-((cyclopropylmethyl)(3′-(dimethylamino)-[1,1′-biphenyl]-4-yl)amino)-5-methyl-6-oxo-5,6-dihydro-1,5-naphthyridine-2-carbonitrile] | 2.5 µM | 0.92 µM |  |
| COc1cc(-c2ccc(N(CC3CC3)c3cc(=O)n(C)c4ccc(C#N)nc34)cc2)ccn1 [Example 90, 8-((cyclopropylmethyl)(4-(2-methoxypyridin-4-yl)phenyl)amino)-5-methyl-6-oxo-5,6-dihydro-1,5-naphthyridine-2-carbonitrile] | 12 µM | 5 µM |  |
| COc1ccc(-c2cccc(N(CC3CC3)c3cc(=O)n(C)c4ccc(C#N)nc34)c2)cc1 [Example 91, 8-((cyclopropylmethyl)(4′-methoxy-[1,1′-biphenyl]-3-yl)amino)-5-methyl-6-oxo-5,6-dihydro-1,5-naphthyridine-2-carbonitrile] | 0.023 µM | 3.2 µM |  |
| Cc1cccc(-c2cccc(N(CC3CC3)c3cc(=O)n(C)c4ccc(C#N)nc34)c2)c1 [Example 92, 8-((cyclopropylmethyl)(3′-methyl-[1,1′-biphenyl]-3-yl)amino)-5-methyl-6-oxo-5,6-dihydro-1,5-naphthyridine-2-carbonitrile] | 0.77 µM | 7.2 µM |  |
| Cc1ccccc1-c1cccc(N(CC2CC2)c2cc(=O)n(C)c3ccc(C#N)nc23)c1 [Example 93, 8-((cyclopropylmethyl)(2′-methyl-[1,1′-biphenyl]-3-yl)amino)-5-methyl-6-oxo-5,6-dihydro-1,5-naphthyridine-2-carbonitrile] | 4.2 µM | 9.2 µM |  |
| Cn1c(=O)cc(N(CC2CC2)c2cccc(-c3cccc(Cl)c3)c2)c2nc(C#N)ccc21 [Example 94, 8-((3′-chloro-[1,1′-biphenyl]-3-yl) (cyclopropylmethyl)amino)-5-methyl-6-oxo-5,6-dihydro-1,5-naphthyridine-2-carbonitrile] | 2.5 µM | 9.1 µM |  |
| COc1cccc(-c2cccc(N(CC3CC3)c3cc(=O)n(C)c4ccc(C#N)nc34)c2)c1 [Example 95, 8-((cyclopropylmethyl)(3′-methoxy-[1,1′-biphenyl]-3-yl)amino)-5-methyl-6-oxo-5,6-dihydro-1,5-naphthyridine-2-carbonitrile] | 2 µM | 6.2 µM |  |
| COc1ccccc1-c1cccc(N(CC2CC2)c2cc(=O)n(C)c3ccc(C#N)nc23)c1 [Example 96, 8-((cyclopropylmethyl)(2′-methoxy-[1,1′-biphenyl]-3-yl)amino)-5-methy-6-oxo-5,6-dihydro-1,5-naphthyridine-2-carbonitrile] | 2.9 µM | 5.4 µM |  |
| Cn1c(=O)cc(N(CC2CC2)c2cccc(-c3ccccc3Cl)c2)c2nc(C#N)ccc21 [Example 97, 8-((2′-chloro-[1,1′-biphenyl]-3-yl)(cyclopropylmethyl)amino)-5-methyl-6-oxo-5,6-dihydro-1,5-naphthyridine-2-carbonitrile] | 1.9 µM | 8 µM |  |
| Cn1c(=O)cc(N(CC2CC2)c2cccc(-c3cccc(O)c3)c2)c2nc(C#N)ccc21 [Example 99, 8-((cyclopropylmethyl)(3′-hydroxy-[1,1′-biphenyl]-3-yl)amino)-5-methyl-6-oxo-5,6-dihydro-1,5-naphthyridine-2-carbonitrile] | 1.8 µM | 31 µM |  |
| CN(C)C(=O)c1ccc(-c2cccc(N(CC3CC3)c3cc(=O)n(C)c4ccc(C#N)nc34)c2)cc1 [Example 101, 3′-((6-cyano-1-methyl-2-oxo-1,2-dihydro-1,5-naphthyridin-4-yl)(cyclopropylmethyl)amino)-N,N-dimethyl-[1,1′-biphenyl]-4-carboxamide] | 0.93 µM | 13 µM |  |
| Cn1c(=O)cc(N(CC2CC2)c2cccc(-c3ccc(CNS(C)(=O)=O)cc3)c2)c2nc(C#N)ccc21 [Example 102, N-((3′-((6-cyano-1-methyl-2-oxo-1,2-dihydro-1,5-naphthyridin-4-yl)(cyclopropylmethyl)amino)-[1,1′-biphenyl]-4-yl)methyl)methanesulfonamide] | 0.18 µM | 3.5 µM |  |
| Cn1c(=O)cc(N(CC2CC2)c2cccc(-c3ccc(C(N)=O)cc3)c2)c2nc(C#N)ccc21 [Example 103, 3′-((6-cyano-1-methyl-2-oxo-1,2-dihydro-1,5-naphthyridin-4-yl)(cyclopropylmethyl)amino)-[1,1′-biphenyl]-4-carboxamide] | 0.12 µM | 2 µM |  |
| Cn1c(=O)cc(N(CC2CC2)c2cccc(-c3cccc(C(N)=O)c3)c2)c2nc(C#N)ccc21 [Example 104, 3′-((6-cyano-1-methyl-2-oxo-1,2-dihydro-1,5-naphthyridin-4-yl) (cyclopropylmethyl)amino)-[1,1′-biphenyl]-3-carboxamide] | 41 µM | 5.2 µM |  |
| Cn1c(=O)cc(N(CC2CC2)c2cccc(-c3cccc(CNS(C)(=O)=O)c3)c2)c2nc(C#N)ccc21 [Example 105, N-((3′-((6-cyano-1-methyl-2-oxo-1,2-dihydro-1,5-naphthyridin-4-yl) (cyclopropylmethyl)amino)-[1,1′-biphenyl]-3-yl)methyl)methanesulfonamide] | 33 µM | 4.4 µM |  |
| Cn1c(=O)cc(N(CC2CC2)c2cccc(-c3cccnc3)c2)c2nc(C#N)ccc21 [Example 106, 8-((cyclopropylmethyl)(3-(pyridin-3-yl)phenyl)amino)-5-methyl-6-oxo-5,6-dihydro-1,5-naphthyridine-2-carbonitrile] | 0.66 µM | 2.2 µM |  |
| CN(C)c1ccc(-c2cccc(N(CC3CC3)c3cc(=O)n(C)c4ccc(C#N)nc34)c2)cc1 [Example 107, 8-((cyclopropylmethyl)(4′-(dimethylamino)-[1,1′-biphenyl]-3-yl)amino)-5-methyl-6-oxo-5,6-dihydro-1,5-naphthyridine-2-carbonitrile] | 0.022 µM | 2 µM |  |
| CN(C)C(=O)c1cccc(-c2cccc(N(CC3CC3)c3cc(=O)n(C)c4ccc(C#N)nc34)c2)c1 [Example 108, 3′-((6-cyano-1-methyl-2-oxo-1,2-dihydro-1,5-naphthyridin-4-yl)(cyclopropylmethyl)amino)-N,N-dimethyl-[1,1′-biphenyl]-3-carboxamide] | 44 µM | 3.7 µM |  |
| CN(C)c1cccc(-c2cccc(N(CC3CC3)c3cc(=O)n(C)c4ccc(C#N)nc34)c2)c1 [Example 109, 8-((cyclopropylmethyl)(3′-(dimethylamino)-[1,1′-biphenyl]-3-yl)amino)-5-methyl-6-oxo-5,6-dihydro-1,5-naphthyridine-2-carbonitrile] | 6.3 µM | 3.7 µM |  |
| COc1cc(-c2cccc(N(CC3CC3)c3cc(=O)n(C)c4ccc(C#N)nc34)c2)ccn1 [Example 110, 8-((cyclopropylmethyl)(3-(2-methoxypyridin-4-yl)phenyl)amino)-5-methyl-6-oxo-5,6-dihydro-1,5-naphthyridine-2-carbonitrile] | 12 µM | 7.3 µM |  |
| Cn1c(=O)cc(N(CC2CC2)c2ccc(C3CCC3)cc2)c2nc(C#N)ccc21 [Example 118, 8-((4-cyclobutylphenyl) (cyclopropylmethyl)amino)-5-methyl-6-oxo-5,6-dihydro-1,5-naphthyridine-2-carbonitrile] | 9.3 µM | 1.3 µM | 0.013 µM |
| Cn1c(=O)cc(N(CC2CC2)c2ccc(C3CCCCC3)cc2)c2nc(C#N)ccc21 [Example 119, 8-((4-cyclohexylphenyl)(cyclopropylmethyl)amino)-5-methyl-6-oxo-5,6-dihydro-1,5-naphthyridine-2-carbonitrile] | 13 µM | 12 µM | 0.041 µM |
| Cn1c(=O)cc(N(CC2CC2)[C@H]2CC[C@H](c3ccccc3)CC2)c2nc(C#N)ccc21 [Example 121, 8-((cyclopropylmethyl)((1r,4r)-4-phenylcyclohexyl)amino)-5-methyl-6-oxo-5,6-dihydro-1,5-naphthyridine-2-carbonitrile] | 16 µM | 18 µM | 0.29 µM |
